Measured values from the OligoGym collection.
“And” between values parts separate entries of the source, which are not always exact repeats. Equal entries are not always repeated. After the bases stand the sugars from the 5' end (letter, count) and the backbone: PS all phosphorothioate, else s phosphorothioate and o phosphodiester by linkage. Methylation of C is not given here. e = 2'-O-(2-methoxyethyl) (MOE); k = constrained ethyl (cEt); d = 2'-deoxy (DNA)

Molecular target: IRF4
Settings: ASO

Row | Sequence | target mRNA inhibition (SK-MEL-28, 4 µM) [%] | target mRNA inhibition (MM.1R, 1 µM) | other results
1 | AGCATTTTATCATCCG (sugars k3 d10 k3, PS) | 81 | – | –
2 | GTTATCTATGGAAACC (sugars k3 d10 k3, PS) | 42 | – | –
3 | AGAGTGGGTGTTGGCC (sugars k3 d10 k3, PS) | 25 | – | –
4 | GACACTTTTAGAGAGG (sugars kkkdddddddddkeke, PS) | – | 24% | –
5 | AATGAGTCGGTCACTT (sugars k3 d10 k3, PS) | 46 | – | –
6 | AGACCAGGATTCGCCA (sugars k3 d10 k3, PS) | 33 | – | –
7 | TGAGAGACGAAAACAG (sugars k3 d10 k3, PS) | -9 | – | –
8 | AAAGAGTGGTACACCT (sugars k3 d10 k3, PS) | – | 10% | –
9 | AGGAAACCGCTGGCAG (sugars k3 d10 k3, PS) | 56 | – | –
10 | ACCATATTGGAAACCA (sugars k3 d10 k3, PS) | 74 | 3% | target mRNA inhibition (MM.1R, 0.0625 µM): -12%; target mRNA inhibition (MM.1R, 0.074 µM): -11%; target mRNA inhibition (MM.1R, 0.222 µM): -18%; target mRNA inhibition (MM.1R, 0.25 µM): -6%; target mRNA inhibition (MM.1R, 0.666 µM): -1%; target mRNA inhibition (MM.1R, 2 µM): 13%; target mRNA inhibition (MM.1R, 4 µM): 34%
11 | TGTGCTTGCCAAGCCT (sugars kkdddddddddkdkdk, PS) | – | 23% and 21% | –
12 | TCAGTTTGTGAAGCAT (sugars kkkdddddddddkeke, PS) | – | 53% | –
13 | AGATATCCTGCAACTG (sugars k3 d10 k3, PS) | -9 | – | –
14 | GTTCAAGTATTAAGAT (sugars k3 d10 k3, PS) | 29 | – | –
15 | TTACACTGGATCTGAA (sugars k3 d10 k3, PS) | 38 | – | –
16 | AAGAAACGAGTTGACA (sugars k3 d10 k3, PS) | 22 | – | –
17 | GTCCTTCAGATTTACA (sugars k3 d10 k3, PS) | – | -17% | –
18 | CAACAGAGCTGAGAGT (sugars k3 d10 k3, PS) | 20 | – | –
19 | CTCTATAGTGTTCCAG (sugars kdddddddddkekeke, PS) | – | 11% | –
20 | CAGTCTCAAAAACGGG (sugars k3 d10 k3, PS) | 51 | – | –
21 | AGCACTGGCATTGAGA (sugars k3 d10 k3, PS) | 74 | – | target mRNA inhibition (MM.1R, 0.074 µM): 4%; target mRNA inhibition (MM.1R, 0.222 µM): 0%; target mRNA inhibition (MM.1R, 0.666 µM): 10%; target mRNA inhibition (MM.1R, 2 µM): 24%; target mRNA inhibition (SK-MEL-28, 0.185 µM): -4% and 10% and -11%; target mRNA inhibition (SK-MEL-28, 15 µM): 86% and 83% and 98%
22 | GATGTGATAGCTGAGC (sugars kddddddddddkekek, PS) | – | 50% | –
23 | AAGAAGCACTGGCATT (sugars k3 d10 k3, PS) | 22 | – | –
24 | GTGACATAAAGGACCC (sugars k3 d10 k3, PS) | – | 10% | –
25 | ACTGTTACCGATGCTT (sugars kkdddddddddkdkdk, PS) | – | 22% and 31% | –
26 | GAAGCATTTTATCATC (sugars kkdddddddddekeke, PS) | – | 6% | –

Row | Sequence | target mRNA inhibition (SK-MEL-28, 4 µM) [%] | target mRNA inhibition (MM.1R, 1 µM) | other results
27 | AATTCCATAGAGCCAG (sugars k3 d10 k3, PS) | – | 18% | –
28 | AGGCACATCAATGTTT (sugars kkdddddddddekeke, PS) | – | 42% and 35% | –
29 | TGACATGCTTTGTCCT (sugars k3 d10 k3, PS) | 59 | – | –
30 | AGGCTCCTACCCGCCT (sugars k3 d10 k3, PS) | 6 | – | –
31 | TAGATTCTCCCTGCAC (sugars k3 d10 k3, PS) | – | 18% | –
32 | GGCCTCCCGCTTGTGG (sugars k3 d10 k3, PS) | -18 | – | –
33 | AAACAGCCCACTGAGT (sugars k3 d10 k3, PS) | 11 | – | –
34 | GCTCAACCTGGAAGGA (sugars k3 d10 k3, PS) | 25 | – | –
35 | TTACCGCATTGCTAGA (sugars k3 d10 k3, PS) | – | 13% and 26% | –
36 | GTAACTGACACGCACA (sugars k3 d10 k3, PS) | 51 | – | –
37 | GGAGGATCATAAAGGA (sugars k3 d10 k3, PS) | – | 32% | –
38 | GAAGTTTACACTGGAT (sugars kddddddddddkekek, PS) | – | 27% | –
39 | ATATGACGACTTAAGC (sugars k3 d10 k3, PS) | 38 | – | –
40 | CACGAAACACAGTCTG (sugars k3 d10 k3, PS) | 52 | – | –
41 | TTGTCCTCTGGGTAGG (sugars k3 d10 k3, PS) | 30 | – | –
42 | ATGTTAGCCAATTCCT (sugars kkddddddddddkeke, PS) | – | 20% and 15% | –
43 | ACGGAAGTTTACACTG (sugars kkkdddddddddkeke, PS) | – | 13% | –
44 | AGGCACATGAGAAATC (sugars k3 d10 k3, PS) | 23 | – | –
45 | TGTATACCAACGACAG (sugars k3 d10 k3, PS) | 58 | – | –
46 | TACTGCTTGAGGTTTT (sugars kdddddddddkekeke, PS) | – | 14% | –
47 | GCAAGTGTCTAAAGTC (sugars k3 d10 k3, PS) | – | 49% and 53% | –
48 | AGTTTACTAACTGGCT (sugars k3 d10 k3, PS) | 63 | – | –
49 | TAATACCTACCTGCCC (sugars k3 d10 k3, PS) | 4 | – | –
50 | TTTGCTTTGGGCACCA (sugars k3 d10 k3, PS) | – | 24% | –
51 | TACATCACTGCAGTTC (sugars k3 d10 k3, PS) | 68 | – | –
